This passage reports IC50 results from patent publication US8258130B2 (Sanofi, priority 2007, dated 2012).

Sequence of human h-PGDS (O60760 whole entry): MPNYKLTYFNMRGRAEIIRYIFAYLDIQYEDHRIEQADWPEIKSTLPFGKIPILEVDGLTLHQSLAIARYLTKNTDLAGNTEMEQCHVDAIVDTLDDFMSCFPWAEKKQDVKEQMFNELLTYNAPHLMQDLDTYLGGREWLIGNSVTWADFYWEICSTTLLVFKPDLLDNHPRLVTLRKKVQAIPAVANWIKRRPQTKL

The assay deals with human h-PGDS (Homo sapiens, UniProt O60760). Put plainly: Enzyme Immunoassay (EIA) method, inhibition of hematopoietic PGD2 synthase. It is filed as biochemical. The settings on record: EIA assay, PGD2 formed from PGH2 by human h-PGDS. As for the experimental part:
Assay 2: Enzyme Immunoassay (EIA) Method
• a. Preparation of 0.1M K2HPO4/KH2PO4 buffer (pH 7.4) • Prepare 0.1 M KH2PO4 from 1M KH2PO4 (Sigma, Cat# P-8709) • Prepare 0.1 M K2HPO4 from powder of K2HPO4 (Fisher, BP363-500) • Mix 0.1 M K2HPO4 with 0.1 M KH2PO4 to adjust pH to 7.4. • b. Preparation of 0.5% γ-globulin • Add 0.1 g of γ-globulin (Sigma, Cat# G-5009) to 20 mL 0.1 M K2HPO4/KH2PO4 buffer (pH 7.4) and make 1-mL/vial aliquots and store in −80° C. • c. Preparation of 100 mM GSH • Add 307 mg of GSH (Sigma, Cat# G-6529) to 10 mL 0.1 M K2HPO4/KH2PO4 buffer (pH 7.4) and store at −80° C. • d. Preparation of Reaction buffer: • 198 mL of 0.1M K2HPO4/KH2PO4 buffer (pH 7.4) • 2 mM GSH—Prepared from 100 mM GSH • 0.4 g Glycerol • 2 mL of 0.5% γ-globulin • Add 0.4 g of glycerol and 2 mL of 0.5% γ-globulin to 198 mL of 0.1 M K2HPO4/KH2PO4 • buffer (pH7.4). • Add 0.4 mL of 100 mM GSH to 19.6 mL reaction buffer before the assay (enough for two 96-well plates). • e. Preparation of FeCl2/citric acid stopping solution: (8 mg/mL FeCl2, 0.1 M citric acid) • Add 40 mg fresh FeCl2 (IGN, Cat# 158046) to 5 mL 0.1 M citric acid (Sigma, Cat# C0759). • f. Preparation of MOX reagent: • 10% EtOH—Add 1 mL of EtOH to 9 mL of ultra pure H2O • Dissolve 0.1 g of methoxyl amine (Cayman, Cat# 400036/) in 10% EtOH (10 mL). • Add 0.82 g of sodium acetate (Cayman, Cat#400037) to MOX solution and dissolve. II. Materials and Method • Dimethylsulfoxide (DMSO; Sigma; Cat# D2650) • Prostaglandin D2-MOX express EIA kit (Caymen Chemical, Catalog No. 500151)
Before the assay, cool down 10 mL of acetone in polypropylene tubes and empty 96 well plates in ice. All the procedures except compound dilution are performed on ice.
• 1. Dilute compound in DMSO
• 2. Dilute 2 μL of each above concentration of compound to 38 μL of reaction buffer in 96-well plates and mix. IV. Enzyme and Substrate Solution Preparation • 1 Preparation of 0.39 ng/μL enzyme solution (0.35 ng/μL at final after compound addition). • Mix 4 μL of 4 mg/mL human h-PGDS with 396 μL of reaction buffer (to give enzyme concentration 40 μg/mL). Add 46.8 μL of 40 μg/mL h-PGDS to 4.753 mL of reaction buffer to give a total volume of 4.8 mL • 2. Preparation of Substrate Solution (PGH2): Add 0.375 mL of 0.1 mg/mL of PGH2 to 1.625 mL acetone. V. Enzyme Reaction: • 1. Add 60 μL of enzyme solution to compound well and positive control (without compound) in U-bottom polypropylene plate on ice. • 2. Add 60 μL of reaction buffer and 6.6 μL of 5% DMSO in reaction buffer into negative control wells in the plate. • 3. Add 6.6 μL of diluted compound in reaction buffer to the compound wells and mix. • 4. Add 6.6 μL of 5% DMSO in reaction buffer to the positive control well. • 5. Incubate the plate in ice for at least 30 min. • 6. Add 20 μL of substrate (PGH2) solution to compound, negative and positive control wells in the U-bottom 96 well plate on ice. • 7. Dry the plate in cold room for about 25-28 min. • 8. Pipette 45 μL of enzyme solution (above) into 96-wells with dried PGH2 and mix 3 times. Incubate on the ice for 1 min. • 9. Add 45 μL of FeCl2 solution into each wells and mix. • 10. Add 90 μL of MOX solution and mix. • 11. Incubate for 30 min at 60° C. • 12. Dilute the samples 2500× with EIA buffer. VI. EIA Assay • Perform the assay according to the procedure in EIA kit provided by Cayman. Total PGD2 levels (pg/mL) were determined in the samples by EIA kits (Caymen Chemical, Catalog No. 500151) Calculate Amount of PGD2 as Below • Calculated % Positive control according to the equation below; % Positive control=(Compound value−Negative control)/(Positive value−Negative control value)×100. […]
In turn, `CC1Cc2ccccc2N1NC(=O)c1cnc(-c2cccc(F)c2)nc1` (stereo not drawn) [Example 100, 2-(3-Fluoro-phenyl)-pyrimidine-5-carboxylic acid (2-methyl-2,3-dihydro-indol-1-yl)-amide] showed an IC50 of 4 nM. To `O=C(Nn1ccc2cc(F)ccc21)c1cnc(-c2ccccc2)nc1` [Example 102, 2-Phenyl-pyrimidine-5-carboxylic acid (5-fluoro-indol-1-yl)-amide] belongs 3 nM; to `O=C(NN1CCc2ccccc21)c1cnc(-c2ccccn2)nc1` [Example 103, 2-Pyridin-2-yl-pyrimidine-5-carboxylic acid (2,3-dihydro-indol-1-yl)-amide], 3 nM; to `O=C(Nn1ccc2ccccc21)c1cnc(-c2ccccn2)nc1` [Example 104, 2-Pyridin-2-yl-pyrimidine-5-carboxylic acid indol-1-yl-amide], 4.5 nM. Compound `O=C(Nn1ccc2ccccc21)c1cnc(-c2cccc(F)c2)nc1` [Example 105, 2-(3-Fluoro-phenyl)-pyrimidine-5-carboxylic acid indol-1-yl-amide] gave an IC50 of 5 nM. Regarding `Cc1nc(-c2cccc(F)c2)ncc1C(=O)NN1CCc2ccccc21` [Example 106, 2-(3-Fluoro-phenyl)-4-methyl-pyrimidine-5-carboxylic acid (2,3-dihydro-indol-1-yl)-amide], inhibition was half-maximal at 23 nM (IC50). On to `Cc1cc2ccccc2n1NC(=O)c1cnc(-c2cccc(F)c2)nc1` [Example 108, 2-(3-Fluoro-phenyl)-pyrimidine-5-carboxylic acid (2-methyl-indol-1-yl)-amide], for which the IC50 stood at 6 nM. With `Cc1nc(-c2cccc(F)c2)ncc1C(=O)Nn1ccc2ccccc21` [Example 109, 2-(3-Fluoro-phenyl)-4-methyl-pyrimidine-5-carboxylic acid indol-1-ylamide] the figure was 10 nM. `Cc1nc(-c2ccccn2)ncc1C(=O)NN1CCc2ccccc21` [Example 110, 4-Methyl-2-pyridin-2-yl-pyrimidine-5-carboxylic acid (2,3-dihydro-indol-1-yl)-amide] yielded an IC50 of 3 nM. To `Cc1nc(-c2ccccn2)ncc1C(=O)Nn1ccc2ccccc21` [Example 111, 4-Methyl-2-pyridin-2-yl-pyrimidine-5-carboxylic acid indol-1-ylamide] belongs 5 nM. With `CS(=O)(=O)c1ccc2ccn(NC(=O)c3cnc(-c4cccc(F)c4)nc3)c2c1` [Example 113, 2-(3-Fluoro-phenyl)-pyrimidine-5-carboxylic acid (6-methanesulfonyl-indol-1-yl)-amide] the figure was 8 nM; with `O=C(Nn1ccc2ncccc21)c1cnc(-c2cccc(F)c2)nc1` [Example 118, 2-(3-Fluoro-phenyl)-pyrimidine-5-carboxylic acid pyrrolo[3,2-b]pyridin-1-ylamide], 18 nM. `COc1ccccc1-c1ncc(C(=O)NN2CC(C)=NNC2=O)cn1` [Example 120, 2-(2-Methoxy-phenyl)-pyrimidine-5-carboxylic acid (6-methyl-3-oxo-2,5-dihydro-3H-[1,2,4]triazin-4-yl)-amide] registered an IC50 of 199 nM. To `Cc1nc(-c2cccc(F)c2)ncc1C(=O)Nn1ccc2cccnc21` [Example 122, 2-(3-Fluoro-phenyl)-4-methyl-pyrimidine-5-carboxylic acid pyrrolo[2,3-b]pyridin-1-ylamide] belongs 12 nM; to `Cc1nc(-c2ccccn2)ncc1C(=O)Nn1ccc2cc(F)ccc21` [Example 123, 4-Methyl-2-pyridin-2-yl-pyrimidine-5-carboxylic acid (5-fluoro-indol-1-yl)-amide], 17 nM. In turn, `O=C(Nn1ccc2cc(F)ccc21)c1cnc(-c2ccccn2)nc1` [Example 124, 2-Pyridin-2-yl-pyrimidine-5-carboxylic acid (5-fluoro-indol-1-yl)-amide] yielded an IC50 of 18 nM. The compound `Cc1nc(-c2ccccn2)ncc1C(=O)Nn1ccc2ncccc21` [Example 127, 4-Methyl-2-pyridin-2-yl-pyrimidine-5-carboxylic acid pyrrolo[3,2-b]pyridin-1-ylamide] showed a 50% inhibitory concentration (IC50) of 13 nM. Compound `Cc1nc(-c2cccc(F)c2)ncc1C(=O)Nn1ccc2ccncc21` [Example 128, 2-(3-Fluoro-phenyl)-4-methyl-pyrimidine-5-carboxylic acid pyrrolo[2,3-c]pyridin-1-ylamide] yielded an IC50 of 28.5 nM. To `Cc1nc(-c2cccnc2)ncc1C(=O)Nn1ccc2ncccc21` [Example 130, 4-Methyl-2-pyridin-3-yl-pyrimidine-5-carboxylic acid pyrrolo[3,2-b]pyridin-1-ylamide] belongs 14 nM; to `Cc1nc(-c2cccc(F)c2)ncc1C(=O)Nn1ccc2cc(F)ccc21` [Example 132, 2-(3-Fluoro-phenyl)-4-methyl-pyrimidine-5-carboxylic acid (5-fluoro-indol-1-yl)-amide], 19 nM.

For the compound `COc1ccc2c(ccn2NC(=O)c2cnc(-c3cccc(F)c3)nc2C)c1` [Example 133, 2-(3-Fluoro-phenyl)-4-methyl-pyrimidine-5-carboxylic acid (5-methoxy-indol-1-yl)-amide], half-maximal inhibition (IC50) required 6 nM.

On to `CC1=NNC(=O)N(NC(=O)c2cnc(-c3cccc(O)c3)nc2)C1` [Example 154, 2-(3-Hydroxy-phenyl)-pyrimidine-5-carboxylic acid (6-methyl-3-oxo-2,5-dihydro-3H-[1,2,4]triazin-4-yl)-amide], for which the IC50 came out at 21 nM. With `Cc1nc(-c2ncccn2)ncc1C(=O)Nn1cc(C)c2cc(F)ccc21` [Example 157, 4-Methyl-[2,2′]bipyrimidinyl-5-carboxylic acid (5-fluoro-3-methyl-indol-1-yl)-amide] the figure was 4.5 nM; with `Cc1nc(-c2cccc(F)c2)ncc1C(=O)Nn1cc(C(N)=O)c2cc(F)ccc21` [Example 162, 5-Fluoro-1-{[2-(3-fluoro-phenyl)-4-methyl-pyrimidine-5-carbonyl]-amino}-1H-indole-3-carboxylic acid amide], 8 nM. To `Cc1nc(-c2cccc(F)c2)ncc1C(=O)Nn1cc(C(C)(C)C(=O)O)c2cc(F)ccc21` [Example 164, 2-(5-Fluoro-1-{[2-(3-fluoro-phenyl)-4-methyl-pyrimidine-5-carbonyl]-amino}-1H-indol-3-yl)-2-methyl-propionic acid] belongs 7 nM; to `Cc1nc(-c2nccs2)ncc1C(=O)Nn1cc(CCC(C)(C)O)c2cc(F)ccc21` [Example 172, 4-Methyl-2-thiazol-2-yl-pyrimidine-5-carboxylic acid [5-fluoro-3-(3-hydroxy-3-methyl-butyl)-indol-1-yl]-amide], 5 nM. Compound `CCc1cn(NC(=O)c2cnc(-c3ncccn3)nc2C)c2ccc(C(F)(F)F)cc12` [Example 176, 4-Methyl-[2,2′]bipyrimidinyl-5-carboxylic acid (3-ethyl-5-trifluoromethyl-indol-1-yl)-amide] came in with an IC50 of 8 nM.
